Values joined by “and” are separate entries in the source; they are usually repeats but may differ in a detail not shown here. Identical values can stand only once.
Key:
Assay type in all cases: cell-based
[1] = biological target: T1, hP2X4 (Homo sapiens, UniProt Q99571); assay: Human P2X4 HEK Cell Electrophysiology Assay B (QPatch); details: ATP 5 microM, -90 mV; read-out: Human P2X4 HEK Cells (QPatch Electrophysiology) avg IC50
T1 construct: expressed in transfected cells; host or cells: HEK-293 mito-Photina, clone 2a/4
T1 sequence (Q99571 1-388): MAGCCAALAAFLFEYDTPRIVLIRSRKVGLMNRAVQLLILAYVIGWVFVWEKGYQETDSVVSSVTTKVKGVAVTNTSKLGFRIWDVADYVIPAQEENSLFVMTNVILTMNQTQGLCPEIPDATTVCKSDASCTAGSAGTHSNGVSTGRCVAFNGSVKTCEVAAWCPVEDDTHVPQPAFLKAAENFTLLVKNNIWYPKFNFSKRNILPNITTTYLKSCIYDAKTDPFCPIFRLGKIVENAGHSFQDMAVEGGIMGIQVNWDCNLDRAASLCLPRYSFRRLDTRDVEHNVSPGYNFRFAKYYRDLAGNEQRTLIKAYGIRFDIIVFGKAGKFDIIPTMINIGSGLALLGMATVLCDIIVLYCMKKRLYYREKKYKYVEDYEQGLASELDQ
Method: Cell culture conditions: HEK-293 mito-Photina pcDNA3(neo-)/pPURO N/pcDNA3_P2RX4, clone 2a/4 (HEK-293 mito-Photina/hP2RX4) cells were cultured in EMEM Minimum Essential Medium Eagle with Earl's salts Balanced Salt Solution (BioWhittaker cat. BE12-125F) supplemented with 5 mL of 200 mM Ultraglutaminel (BioWhittaker cat. BE17-605E/U1), 5 mL of 100× Penicillin/Streptomycin (BioWhittaker cat. DE17-602E; final concentration 1%), 4 mL of 50 mg/mL G418 (Sigma cat. G8168-100 mL; final concentration 400 μg/mL), 10 μL of 10 mg/mL Puromicin (InvivoGen cat. ant-pr-1; final concentration 0.2 μg/mL) and 50 mL of Fetal Bovine Serum (Sigma cat. F7524; final concentration 10%).
Experimentalprotocol: HEK-293 cell lines are seeded 72 or 96 hours before experiment, at a concentration of 5 or 2.5 million cells, respectively onto a T225 flask. Just before the experiments cells are washed twice with D-PBS w/o Ca2+/Mg2+(Euroclone cat. ECB4004L) and detached from the flask with trypsin-EDTA (Sigma, cat. T4174 diluted 1/10). Cells are then re-suspended in the suspension solution: 25 mL EX-CELL ACF CHO medium (Sigma, cat. C5467); 0.625 mL HEPES (BioWhittaker, cat. BE17-737E); 0.25 mL of 100× Penicillin/Streptomycin (BioWhittaker, cat. DE17-602E), 0.1 mL of Soybean Trypsin Inhibitor 10 mg/mL (Sigma, cat. T6522) and placed on the QPatch 16X.
Compound preparation and storage: Compound stock solutions (10 mM; 100% DMSO; stored at −20° C.) were used. Fresh solutions from stock (1 or 3 mM, 100% DMSO) were prepared just before the experiments (0.1% final DMSO concentration).
Patch clamp analysis with QPatch16X (FIG. 1): Standard whole-cell voltage clamp experiments are performed at room temperature using the multihole technology.
For the voltage clamp experiments on hP2X4, data are sampled at 2 KHz. After establishment of the seal and the passage in the whole cell configuration, the cells are held at −90 mV and the hP2X4 current is evoked by the agonist in the absence (vehicle period, i.e. 0.1% DMSO) or in the presence of the compound under investigation at increasing concentrations; see the application protocol in FIG. 1.
Output: the maximum inward current induced by the agonist (ATP 5 microM).
The intracellular solution contained (mM) 135 CsF, 10 NaCl, 1 EGTA, 10 HEPES (pH 7.2 with CsOH) whereas the extracellular solution (mM) 145 NaCl, 4 KCl, 0.5 MgCl2, 1 CaCl2, […], 10 Glucose (pH 7.4 with NaOH).
For data collection, the Sophion software was used and the analysis was performed off-line using Excel and GraphPad Prism.
When possible, i.e. when the % of inhibition with the highest concentration tested was more than 50%, the dose-response curves data were fitted with the following equation:
[X is log of concentration; Y is normalized response (100% down to 0%, decreasing as X increases); Log IC50 same log units as X; HillSlope is unitless slope factor or hill slope]

[2] = biological target: T2, human P2X4 (Homo sapiens, UniProt Q99571); assay: Human P2X4 HEK Cell FLIPR Assay; parameters: expressed in transfected cells; host or cells: HEK293; details: HEK293 cells, agonist Bz-ATP at EC80; for Emax: percentage of maximal inhibition, read-out: Human P2X4 HEK Cells (FLIPR Assay) avg Efficacy
T2 sequence (Q99571 1-388): T1 sequence (Q99571 1-388)
Method: HEK293 cells stably expressing human P2X4 were plated in poly-D-lysine-coated 384-well plates at a seeding density of 30000 cells/well and incubated overnight. P2X4 function was assessed by measuring intracellular calcium changes using the calcium-chelating dye Fluo8-AM (Molecular Devices) on a fluorescent imaging plate reader (FLEX/FLIPR station; Molecular Devices). On the day of the assay, the medium was removed and the cells were incubated for 30 min at 37° C. and 5% CO2 in 30 μL of dye buffer (Hank's balanced salt solution, 10 mM HEPES, 1.8 mM CaCl2, 1 mM MgCl2, 2 mM probenecid, 5 mM D-glucose monohydrate, 5 μM Fluo8-AM, pH=7.4). Compounds diluted in probenecid buffer (Hank's balanced salt solution, 10 mM HEPES, 1.8 mM CaCl2, 1 mM MgCl2, 2 mM probenecid, 5 mM D-glucose monohydrate, pH=7.4) were added in a volume of 10 μL and allowed to incubate for 30 min at room temperature. The final assay DMSO concentration was 0.5%. The agonist, Bz-ATP (Tocris), was added in a volume of 10 μL at a concentration representing the EC80 value. The EC80 value of Bz-ATP was determined each assay day prior to compound profiling. The fluorescence was measured for an interval of 120 sec at 2 sec intervals. The excitation and emission wavelengths used to monitor fluorescence were 470-495 nm and 515-575 nm, respectively. The data was analyzed based on the increase in peak relative fluorescence units (RFU) compared to the basal fluorescence and the data was normalized to the agonist control. The compounds were tested in triplicates per plate and mean values were plotted in Excel XL-Fit to determine IC50 values, percentage of maximal inhibition and the Hill coefficients.

[3] = biological target: T3, endogenous P2X4 channels (Homo sapiens, UniProt Q99571); assay: Human Monocyte P2X4 Assay (FLIPR); details: primary human monocytes, 3 μM BzATP, one value per donor; for Emax: read-out: Human P2X4 Monocytes (FLIPR Assay) Efficacy for different donors; for IC50: read-out: Human P2X4 Monocytes (FLIPR Assay) IC50 for different donors
T3 construct: measure calcium influx through endogenous P2X4 channels into primary human monocytes; endogenous in cells; host or cells: primary human monocytes isolated from donor PBMCs
T3 sequence (Q99571 1-388): T1 sequence (Q99571 1-388)
Method: The principle of the assay is to measure calcium influx through endogenous P2X4 channels into primary human monocytes, following activation by 2′,3′-O-(4-benzoyl-benzoyl)-ATP (Bz-ATP). Intracellular calcium concentration changes were measured with a Flipr™ (Molecular Devices) device using a calcium sensitive dye (Fluo-8). In primary monocytes P2X4 is located at the lysosome membrane, therefore exocytosis has to be triggered to expose P2X4 at the cellular membrane.
Human peripheral blood mononuclear cells (PBMCs) from anticoagulated blood (blood cells, BC) were isolated via density gradient centrifugation. Whole blood was diluted 1:3 with PBS. Samples of 30 mL were layered carefully on top of 15 mL Biocoll (BIOCHROM) in 50 mL centrifuge tubes (Falcon). Tubes were centrifuged at 914×g for 25 min at RT without brake. The PBMC layer was removed with a 10 mL pipette and transferred into tubes with ice-cold PBS in a total volume of 50 mL. Cells were washed twice by pelleting at 300×g at 4° C., for 10 min and for 5 min respectively. PBMCs were re-suspended in 10 mL medium (X-vivo, Biozym Scientific) and counted in a Neubauer chamber.
Monocytes were isolated by negative selection using the Monocyte isolation kit II from Miltenyi (#130-091-153) according to the instructions. Isolation should be done fast and cells and solutions should be kept on ice at any time. PBMCs in batches of 10exp8 cells were pelleted (300×g, 10 min) and re-suspended with 300 μL MACS buffer in a 50 mL Falcon tube. FcR Blocking reagent (100 μl) and Biotin-Ab (100 μl) were added, mixed and incubated on ice for 10 min. MACS buffer (300 μL) and anti-Biotin Micro-beads (100 μL) were added, mixed and incubated on ice for 15 min. Cells were washed by pelleting (300×g for 10 min) and re-suspended in 500 μL MACS buffer. For each batch one separation column was placed in the MACS separator and rinsed with 3 mL MACS buffer. The cell suspension was added to the column, followed by 3×3 mL MACS buffer for washing, and the eluent containing the monocytes was collected. Cells were pelleted (300×g for 10 min), re-suspended in X-vivo medium and counted. Monocytes were seeded into fibronectin-coated micro-plates (384-well, black, flat transparent bottom; Corning #3848) at a density of 30,000 cells/well in 50 μL, and cultivated over night (37° C., 5% CO2).
Test substances were dissolved in 100% DMSO at a stock concentration of 10 mM and stored at −20° C. in aliquots. Serial dilutions (2×) were prepared in DMSO and diluted 500× with assay buffer to generate the antagonist plate. In the Flipr measurement, 10 μL per well were transferred (4× dilution) and a final top concentrations of 5 μM and 0.05% DMSO were obtained in the assay. Agonist BzATP was stored at 10 mM in aliquots and diluted to an intermediate concentration of 15 μM to generate the agonist plate. In the Flipr measurement, 10 μL per well were transferred (5× dilution) so that a final assay concentration of 3 μM was obtained.
For the experiment, the medium of the cell plate was discarded manually and 70 μL/well loading buffer was added and incubated for 1 h (37° C., 5% CO2). Loading buffer contained HBSS (w/o calcium/magnesium), 10 mM Hepes pH 7.4, 5 μM Fluo-8 (AM) (Tebu-bio) and 50 mM methylamine (Sigma) to trigger exocytosis. Loading buffer was discarded manually and 30 μL/well low-calcium assay buffer (5 mM KCl, 145 mM NaCl, 0.5 mM CaCl2), 13 mM glucose, 10 mM Hepes pH 7.4) was added. The antagonist plate was transferred (10 μL/well) and after 15 min at RT the agonist plate (10 μL/well) was transferred.
Agonist addition was recorded for 240 seconds after a 10 second baseline. For analysis, a baseline correction was applied, and the maximum of the curve was extracted. Data were normalized towards 0% inhibition (signal at 3 μM BzATP) and 100% inhibition (absence of BzATP stimulation) and fitted with a four-parameter sigmoidal inhibition curve using Prism Graph Pad to obtain IC50 values.

Row | Structure (SMILES) | IC50 [1] | IC50 [2] | Emax [3] | IC50 [3] | Emax [2]
1 | NS(=O)(=O)c1cc(NC(=O)Cc2ccccc2F)ccc1-n1cc(C(F)(F)F)cn1 [Example 20, 2-(2-Fluorophenyl)-N-{3-sulfamoyl-4-[4-(trifluoromethyl)-1H-pyrazol-1-yl]phenyl}-acetamide] | 195 nM | 140 nM |  |  | 
2 | NS(=O)(=O)c1cc(NC(=O)Cc2ccccc2Cl)ccc1-n1cnc(Cl)n1 [Example 24, 2-(2-Chlorophenyl)-N-[4-(3-chloro-1H-1,2,4-triazol-1-yl)-3-sulfamoylphenyl]-acetamide] |  | 45 nM | 79% | 141 nM and 34 nM and 91 nM | 
3 | NS(=O)(=O)c1cc(NC(=O)Cc2ccccc2Cl)ccc1-n1cc(Cl)cn1 [Example 25, 2-(2-Chlorophenyl)-N-[4-(4-chloro-1H-pyrazol-1-yl)-3-sulfamoylphenyl]acetamide] | 222 nM | 26 nM |  |  | 
4 | NS(=O)(=O)c1cc(NC(=O)Cc2ccccc2Cl)ccc1-n1cc(Br)cn1 [Example 28, N-[4-(4-Bromo-1H-pyrazol-1-yl)-3-sulfamoylphenyl]-2-(2-chlorophenyl)acetamide] |  | 31 nM |  | 78 nM and 164 nM | 90%
5 | COc1ccc(CC(=O)Nc2ccc(-n3cc(Cl)cn3)c(S(N)(=O)=O)c2)cc1 [Example 170, N-[4-(4-Chloro-1H-pyrazol-1-yl)-3-sulfamoylphenyl]-2-(4-methoxyphenyl)acetamide] |  | 126 nM | 60% | 303 nM and 183 nM and 110 nM | 70%
6 | NS(=O)(=O)c1cc(NC(=O)Cc2ccccc2F)cnc1-c1cnn(C(F)F)c1 [Example 321, N-{6-[1-(Difluoromethyl)-1H-pyrazol-4-yl]-5-sulfamoylpyridin-3-yl}-2-(2-fluorophenyl)acetamide] | 227 nM | 87 nM |  |  | 
7 | NS(=O)(=O)c1cc(NC(=O)Cc2ccccc2Cl)ccc1-c1cncc(C(F)(F)F)c1 [Example 331, 2-(2-Chlorophenyl)-N-{3-sulfamoyl-4-[5-(trifluoromethyl)pyridin-3-yl]phenyl}-acetamide] | 155 nM | 25 nM |  |  | 
8 | NS(=O)(=O)c1cc(NC(=O)Cc2ccccc2Cl)ccc1-c1cnn(C2CC2)c1 [Example 349, 2-(2-Chlorophenyl)-N-[4-(1-cyclopropyl-1H-pyrazol-4-yl)-3-sulfamoylphenyl]acetamide] | 117 nM | 37 nM |  |  | 
9 | NS(=O)(=O)c1cc(NC(=O)Cc2ccccc2Cl)cnc1-n1cc(Cl)cn1 [Example 387, 2-(2-Chlorophenyl)-N-[6-(4-chloro-1H-pyrazol-1-yl)-5-sulfamoylpyridin-3-yl]acetamide] |  | 34 nM | 35% | 122 nM and 104 nM | 

— patent US20210179577A1, “AROMATIC SULFONAMIDE DERIVATIVES FOR THE TREATMENT OF ISCHEMIC STROKE” (Bayer Aktiengesellschaft, priority 2017, published 2021)
